ChEMBL document CHEMBL1154948, “Carbonic anhydrase inhibitors. Inhibition of transmembrane isoforms IX, XII, and XIV with less investigated anions including trithiocarbonate and dithiocarbamate” (Bioorg Med Chem Lett, 2010)

Columns and labels:
[1] = biological target: Carbonic anhydrase 9 (Homo sapiens) (UniProt Q16790); test: Inhibition of human recombinant CA9 by stopped flow CO2 hydration assay
[2] = biological target: Carbonic anhydrase 12 (Homo sapiens) (UniProt O43570)
[3] = biological target: Carbonic anhydrase 14 (Homo sapiens) (UniProt Q9ULX7)
Carbonic anhydrase 14 (Homo sapiens), sequence (Q9ULX7 whole entry): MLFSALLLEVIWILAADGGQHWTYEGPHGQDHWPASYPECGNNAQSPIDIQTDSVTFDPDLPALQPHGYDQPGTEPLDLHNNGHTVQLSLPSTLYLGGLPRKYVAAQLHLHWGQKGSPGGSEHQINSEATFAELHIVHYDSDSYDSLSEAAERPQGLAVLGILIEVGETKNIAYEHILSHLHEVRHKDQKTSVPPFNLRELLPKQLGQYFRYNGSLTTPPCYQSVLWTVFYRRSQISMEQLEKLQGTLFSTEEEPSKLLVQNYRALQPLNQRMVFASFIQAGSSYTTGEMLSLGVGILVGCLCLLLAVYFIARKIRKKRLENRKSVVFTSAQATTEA
Description: Inhibition of human recombinant CA14 by stopped flow CO2 hydration assay

Carbonic anhydrase 12 (Homo sapiens), sequence (O43570 whole entry): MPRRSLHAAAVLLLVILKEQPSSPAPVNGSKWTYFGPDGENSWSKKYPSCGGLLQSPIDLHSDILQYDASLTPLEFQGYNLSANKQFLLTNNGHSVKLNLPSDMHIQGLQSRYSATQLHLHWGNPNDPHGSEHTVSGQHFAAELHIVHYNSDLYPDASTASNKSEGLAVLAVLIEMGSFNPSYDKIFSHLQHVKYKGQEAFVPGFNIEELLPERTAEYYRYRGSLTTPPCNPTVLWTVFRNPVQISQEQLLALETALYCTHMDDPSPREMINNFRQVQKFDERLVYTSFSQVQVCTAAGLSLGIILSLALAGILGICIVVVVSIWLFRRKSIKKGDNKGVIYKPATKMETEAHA

O=P(O)(O)OP(=O)(O)O
Kinact [1]: 46.3 mM
Kinact [2]: 63.9 mM
Kinact [3]: 0.76 mM

O=[Se](=O)(O)O
Kinact [1]: 183 mM
Kinact [2]: 138 mM
Kinact [3]: 49.6 mM

CCN(CC)C(=S)S
Kinact [1]: 0.0014 mM
Kinact [2]: 0.0011 mM
Kinact [3]: 0.001 mM

SODIUM DIOXIDOTRIOXOOSMIUM
Kinact [1]: 184 mM
Kinact [2]: 130 mM
Kinact [3]: 72.5 mM

SODIUM STANNATE
Kinact [2]: 1.02 mM
